Data published in US20240000791A1, “Methods of Using 4-Amino-N-[4-(Methoxymethyl)Phenyl]-7-(1-Methylcyclopropyl)-6-(3-Morpholinoprop-1-YN-1-YL)-7H-Pyrrolo[2,3-D]Pyrimidine-5-Carboxamide for the Treatment of Tumors” (Helsinn Healthcare SA, priority 2020, published 2024).

Key:
[1] = system: cell line from a patient who acquired resistance to RXDX-105 (KIF5B-RET fusion); assay: Growth inhibition, RXDX-105-resistant cell line; type: cell-based; settings: Homo sapiens; RXDX-105-resistant, KIF5B-RET; read-out: IC50 growth inhibition
[2] = CNS symptoms and neurotoxicity (Fluoro-Jade C, ATF3) in dog toxicity studies; type: in vivo
Protocol: In order to evaluate the potential neurotoxic effect of HM06-01, Fluoro-Jade C staining was performed on nine different brain areas (i.e., frontal pole, optic chiasm, infundibulum, mammillary bodies, base of third cranial nerve, anterior portion of pons and occipital pole section, cerebellum and medulla oblongata) of control dogs and dogs treated with 45 mg/kg BID HM06-01/TAS0953-01 (samples were taken from the 2-week toxicity study in dogs). In addition, ATF3 immunostaining was performed only on one control and one high dose dog treated with 45 mg/kg BID, in order to validate with an alternative method, the absence of any signs of neuronal degeneration or suffering.

[3] = ECG and blood pressure, 2-week toxicology GLP study; type: in vivo, dog; settings: for mean arterial blood pressure: high dose females
Protocol: The effect of HM06-01/TAS0953-01 on the ECG was investigated in the 2-week toxicology GLP study in dog as described above on Day 12. […] Heart rate and ECG were also not affected at all dose levels tested. […] At +8 h, arterial blood pressure had returned to control/baseline levels. Although this decrease was not statistically significant versus control, it was consistent and noticeable enough to be considered test item related. Nevertheless, since the extent of the change was limited and present only in the high dose females, and as this decrease in blood pressure had no negative impact on the animals' health, it was considered as non-adverse.

[4] = ECG, 4-week toxicology GLP study; type: in vivo, dog
Protocol: The effect of HM06-01/TAS0953-01 on the ECG was also investigated in the 4-week toxicology GLP study in dog as described above (and further described in Example 8) on week 1 (Day 2), week 4 (Day 23) and at the end of the 2-week recovery period. […] Whereas, on Day 23, no test item-related effects were noted on electrocardiographic parameters at 15 and 30 mg/kg BID in males. […] These electrocardiographic effects were no longer observed at the end of the 2 week recovery period. In addition, there were no abnormalities in electrocardiogram rhythm and waveforms on Day 2 and Day 23, and at the end of the recovery period.

[5] = Respiratory system, 4-week GLP study; type: in vivo, rat; settings: 25, 50 and 90 mg/kg BID, week 4
Protocol: The effect of HM06-01/TAS0953-01 on the respiratory system was also investigated after repeated administration with HM06-01/TAS0953-01 at 25, 50 and 90 mg/kg BID in the 4-week GLP study in rats further described in Example 8. Each group comprised 5 animals/group/sex.

[6] = 4-week GLP toxicity study in rat; type: in vivo; settings: for AUC(0-t): 50 mg/kg, 50 mg/kg BID
Protocol: In the 4-week GLP toxicity study in rat, animals received 0, 25, 50, and 90 mg/kg BID HM06-01/TAS0953-01 by oral gavage. In the high dose of 90 mg/kg BID group, test item-related mortality was observed: 3 females were found dead or were prematurely sacrificed for ethical reasons (severe clinical signs like decreased activity, abnormal respiratory rate and erected fur) from Day 10 to Day 14. At necropsy, discolorations of the lungs were generally observed, histologically correlated with adverse moderate to marked inflammatory changes in the lungs (alveolar/perivascular inflammation, macrophages aggregates, alveolar oedema/hemorrhage). One additional female (satellite) was found dead on Day 7 before dosing. However, in absence of clinical sign and of abnormality at necropsy, the relationship with the test item administration was considered doubtful.

[7] = 4-week GLP toxicity study in dog; type: in vivo; settings: for AUC(0-t): beagle, dog, in vivo, po, 30 mg/kg, 30 mg/kg BID
Protocol: In the 4-week GLP toxicity study in dog, animals received 0, 15, 30, and 45 mg/kg BID HM06-01/TAS0953-01 by oral gavage for 4 consecutive weeks followed by 2-week recovery period. In the high dose of 45 mg/kg BID group, test item-related mortality was observed: 2 males were prematurely sacrificed on Day 17 and Day 18 for ethical reasons (severe clinical signs associated with a significant body weight loss). The main cause of death was the mild to moderate multifocal subacute inflammation with alveolar or bronchioalveolar distribution, accompanied in one male with alveolar foreign body granulomas. In the other male, minimal pancreatic acinar vacuolation/apoptosis with prostatic acinar apoptosis were noted, for which the relationship with test item cannot be excluded.

[8] = Proconvulsant and anticonvulsant effects (pentylenetetrazole)

Structure (SMILES): COc1cc2nccc(Oc3ccc(NC(=O)C4(C(=O)Nc5ccc(F)cc5)CC4)cc3)c2cc1OC [cabozantinib, reference compound]
- IC50 [1]: 340 nM

Structure (SMILES): COCc1ccc(NC(=O)c2c(C#CCN3CCOCC3)n(C3(C)CC3)c3ncnc(N)c23)cc1 [HM06-01/TAS0953-01, 4-amino-N-(4-(methoxymethyl)phenyl)-7-(1-methylcyclopropyl)-6-(3-morpholinoprop-1-yn-1-yl)-7H-pyrrolo[2,3-d]pyrimidine-5-carboxamide]
- neuronal degeneration (Fluoro-Jade C, ATF3) ([2]; 45 mg/kg BID, 2-week toxicity study, brain areas): no evidence of any neuronal degeneration
- dose at which CNS symptoms were seen ([2]; after the first administration in PK studies): ≥ 5 mg/kg BID
- dose at which CNS symptoms were seen ([2]; after the first daily dose, routine clinical observations, 2-week and 4-week toxicity studies): ≥ 15 mg/kg BID
- QT prolongation ([3]; 15, 30 and 45 mg/kg BID, Day 12): No evidence of QT prolongation
- heart rate and ECG ([3]; all dose levels tested): not affected
- mean arterial blood pressure ([3]; 1 hour after the second daily dose, vehicle 115): 93 mmHg
- mean arterial blood pressure ([3]; 5 hours after the first daily dosing, vehicle 127): 91 mmHg
- ECG effects ([4]; Day 2, two hours after second daily dose, 15, 30 and 45 mg/kg BID): no effects
- prolongation of Fridericia and Van der Water corrected QTc interval versus control ([4]; Day 23, females, 15, 30 and 45 mg/kg): up to 8%
- heart rate ([4]; Day 23, males, 45 mg/kg BID): slight increase in heart rate
- respiratory parameters [5]: Neither toxicologically relevant effects in respiratory parameters were observed at week 4
- test item-related mortality ([6]; 90 mg/kg BID, Day 10 to Day 14): 3 females
- decrease of body weight ([6]; 90 mg/kg BID, both sexes): 10%
- severely toxic dose 10 (STD 10) ([6]; 4-week, oral gavage): 50 mg/kg BID
- ophthalmology ([6]; 4 weeks oral BID): no change in ophthalmology
- systemic exposure vs dose ([6]; 25-90 mg/kg BID): approximately dose proportional manner
- body weight ([6]; 25 and 50 mg/kg BID): no effect on body weight
- systemic accumulation ([6]; Day 28): no systemic accumulation
- clinical chemistry, AST and ALT ([6]; both sexes): dose-dependent increase in AST and ALT
- hematology, reticulocytes ([6]; both sexes): dose-dependent increase in reticulocytes
- urine protein concentration ([6]; both sexes): dose-dependent increase in urine protein concentration
- microscopic findings ([6]; end of dosing period): inflammatory microscopic findings were noted in the lungs
- AUC(0-t) ([6]; female, rat, in vivo, po, Day 1, females): 37200 ng·h/mL
- AUC(0-t) ([6]; female, rat, in vivo, po, Day 28, females): 74300 ng·h/mL
- AUC(0-t) ([6]; male, rat, in vivo, po, Day 1, males): 50300 ng·h/mL
- AUC(0-t) ([6]; male, rat, in vivo, po, Day 28, males): 73000 ng·h/mL
- Tmax ([6]; rat, in vivo, po, Day 1, after the first daily dose): 7 h
- Tmax ([6]; rat, in vivo, po, Day 28, after the first daily dose): 1 h
- half-life ([6]; rat, in vivo, po, after the second daily dose, when estimable): 2.03 to 3.67 h
- test item-related mortality ([7]; 45 mg/kg BID, Day 17 and Day 18): 2 males
- body weight loss ([7]; 45 mg/kg BID, Male No. 642, day 17): −12%
- body weight loss ([7]; 45 mg/kg BID, Male No. 644, day 15): −25%
- highest non severely toxic dose (HNSTD) ([7]; 4-week, oral gavage): 30 mg/kg BID
- ophthalmology, urinalysis, coagulation, clinical chemistry ([7]; 4 weeks oral BID): no change in ophthalmology, urinalysis and on coagulation and clinical chemistry parameters
- hematology, total white blood cell count ([7]; both sexes): increase in total white blood cell count
- microscopic findings ([7]; end of dosing period): inflammatory microscopic findings in the lungs
- AUC(0-t) ([7]; female, Day 1, females): 29200 ng·h/mL
- AUC(0-t) ([7]; female, Day 28, females): 29100 ng·h/mL
- dose at which test item-related clinical signs were noted ([7]; from Day 1): ≥ 15 mg/kg BID
- body weight ([7]; low dose): no effect on body weight
- AUC(0-t) ([7]; male, Day 1, males): 21400 ng·h/mL
- AUC(0-t) ([7]; male, Day 28, males): 22300 ng·h/mL
- proconvulsant activity ([8]; 30, 100 and 200 mg/kg oral, 1 hour prior to 25 mg/kg PTZ): did not demonstrate any proconvulsant activity
- anticonvulsant effect, total number of convulsions ([8]; 100 and 200 mg/kg oral, pentylenetetrazole): decrease in the total number of convulsions
